Test results: BindingDB's records for patent US12552758 (Neophore, 2026)

What was measured:
[1] = molecular target: T1, DNA mismatch repair protein Mlh1 (UniProt P40692); experiment: Fluorescence Polarisation Assay for MLH1
T1 sequence (P40692 whole entry): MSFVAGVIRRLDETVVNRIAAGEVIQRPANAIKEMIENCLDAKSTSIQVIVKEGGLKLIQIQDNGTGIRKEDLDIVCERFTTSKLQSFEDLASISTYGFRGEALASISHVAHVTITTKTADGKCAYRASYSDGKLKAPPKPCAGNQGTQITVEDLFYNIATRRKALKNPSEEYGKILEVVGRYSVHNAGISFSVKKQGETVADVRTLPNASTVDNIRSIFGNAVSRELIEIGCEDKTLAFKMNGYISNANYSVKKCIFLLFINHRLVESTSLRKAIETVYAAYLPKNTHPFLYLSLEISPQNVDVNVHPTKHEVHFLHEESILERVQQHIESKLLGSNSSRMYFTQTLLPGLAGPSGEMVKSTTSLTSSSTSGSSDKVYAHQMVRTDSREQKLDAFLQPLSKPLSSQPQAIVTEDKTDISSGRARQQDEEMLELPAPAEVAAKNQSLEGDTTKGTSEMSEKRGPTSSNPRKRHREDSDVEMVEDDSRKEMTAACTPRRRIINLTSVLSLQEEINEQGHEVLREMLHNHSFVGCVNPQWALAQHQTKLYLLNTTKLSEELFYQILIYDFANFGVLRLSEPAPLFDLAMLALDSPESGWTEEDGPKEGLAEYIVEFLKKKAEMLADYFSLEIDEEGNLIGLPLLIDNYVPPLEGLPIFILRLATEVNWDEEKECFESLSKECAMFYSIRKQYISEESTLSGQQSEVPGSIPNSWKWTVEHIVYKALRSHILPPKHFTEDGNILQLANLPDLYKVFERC
Description: 20 μL assay buffer was added to all wells in columns 1 and 24 (column 24 only for single point screening) using a MultiDrop Combi (ThermoFisher). Plates were centrifuged for 1 minute at 250×g and were incubated at room temperature for 30 minutes prior to the addition of 20 μL of 2×(10 nM) of 5-((5-(4-((2-(2,4-dihydroxy-5-isopropylbenzoyl)isoindolin-5-yl)methyl)piperazin-1-yl)pentyl)carbamoyl)-2-(6-(dimethylamino)-3-(dimethyliminio)-3H-xanthen-9-yl)benzoate (referred to hereinafter as “probe compound”) in assay buffer (prepared from a 100 μM DMSO stock) with a MultiDrop Combi (ThermoFisher). The final concentration of N-terminal MLH1 was 100 nM and the final concentration of probe compound was 5 nM.

[2] = molecular target: T2, Mismatch repair endonuclease PMS2 (UniProt P54278); experiment: Fluorescence Polarisation Assay for PMS2
T2 sequence (P54278 whole entry): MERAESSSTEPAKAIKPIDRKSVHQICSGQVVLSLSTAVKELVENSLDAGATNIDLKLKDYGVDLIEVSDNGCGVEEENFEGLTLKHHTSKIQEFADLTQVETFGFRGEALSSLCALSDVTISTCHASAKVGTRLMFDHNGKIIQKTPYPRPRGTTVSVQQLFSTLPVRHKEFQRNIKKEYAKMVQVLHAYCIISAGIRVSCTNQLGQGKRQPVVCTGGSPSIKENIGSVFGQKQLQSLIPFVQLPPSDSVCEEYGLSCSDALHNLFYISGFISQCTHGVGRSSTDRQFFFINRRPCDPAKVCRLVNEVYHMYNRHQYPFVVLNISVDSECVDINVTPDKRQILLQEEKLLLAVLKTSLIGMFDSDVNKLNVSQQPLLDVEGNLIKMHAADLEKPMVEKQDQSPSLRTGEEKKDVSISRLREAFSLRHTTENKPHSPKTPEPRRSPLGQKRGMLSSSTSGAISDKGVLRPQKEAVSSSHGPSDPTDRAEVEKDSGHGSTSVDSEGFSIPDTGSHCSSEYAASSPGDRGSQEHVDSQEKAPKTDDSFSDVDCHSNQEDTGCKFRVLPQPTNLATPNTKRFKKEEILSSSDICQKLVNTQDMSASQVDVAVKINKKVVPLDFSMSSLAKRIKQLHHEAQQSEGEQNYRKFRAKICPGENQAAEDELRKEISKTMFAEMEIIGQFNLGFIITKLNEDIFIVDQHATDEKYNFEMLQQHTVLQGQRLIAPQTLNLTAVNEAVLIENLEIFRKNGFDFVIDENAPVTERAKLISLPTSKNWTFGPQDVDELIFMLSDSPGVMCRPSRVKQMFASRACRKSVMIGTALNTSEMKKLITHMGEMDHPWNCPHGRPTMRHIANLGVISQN
Description: 20 μL assay buffer was added to all wells in columns 1 and 24 (column 24 only for single point screening) using a MultiDrop Combi (ThermoFisher). Plates were centrifuged for 1 minute at 250×g and were incubated at room temperature for 30 minutes prior to the addition of 20 μL of 2×([…]) of 5-((5-(4-((2-(2,4-dihydroxy-5-isopropylbenzoyl)isoindolin-5-yl)methyl)piperazin-1-yl)pentyl)carbamoyl)-2-(6-(dimethylamino)-3-(dimethyliminio)-3H-xanthen-9-yl)benzoate (referred to hereinafter as “probe compound”) in assay buffer (prepared from a 100 μM DMSO stock) with a MultiDrop Combi (ThermoFisher). The final concentration of N-terminal PMS2 was 10 nM and the final concentration of probe compound was 5 nM.

IC50 [1] [µM] | IC50 [2] [µM] | Compound
> 10 | < 1 | Cc1c(O)cc(O)c(C(=O)N2Cc3cccc(Br)c3C2)c1OCc1ccccc1 [US12552758, Example 38]
> 10 | < 1 | Cc1c(O)cc(O)c(C(=O)N2Cc3cccnc3C2)c1OCc1ccccc1 [US12552758, Example 30]
